Data: article PMC4332545 (ChemMedChem, 2009)

Tests used:
[1] = tested on: 6 Hz (32 mA) corneal stimulation seizures in CF-1 mice; assay: 6 Hz partial psychomotor seizure model; type: in vivo; conditions: mouse 6 Hz, 30 min after dosing
[2] = tested on: Frings mouse model of epilepsy; conditions: in vivo; cited from earlier work

Row | Molecule | Anticonvulsant Assay, icv ED50 [1] [nmol] | Anticonvulsant activity in the Frings mouse model [2]
1 | CC[C@H](C)[C@H](NC(=O)[C@H](Cc1ccc(O)cc1)NC(=O)[C@@H]1CCCN1C(=O)[C@H](CCCNC(=N)N)NC(=O)[C@@H](N)CCCNC(=N)N)C(=O)N[C@@H](CC(C)C)C(=O)O [NT(8–13), H-RRPYIL-OH] | 0.0011 | –
2 | ZSEEGGSNATKKPYIL [Contulakin-G] | – | potent anticonvulsant activity
